Measurements reported in PubChem BioAssay AID1845209 (Molecular Pharmacology Branch, DTP, NCI, 2023).

Tested on: NCI-H211 tumor spheroids, viability percent test/control
Assay: Anticancer human tumor NCI-H211 cell line growth inhibition;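 further: spheroids exposed to agents for seven days before readout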
Conditions: spheroids with HUVEC and MSC; for viability, T/C: stronger effect = lower value
How it was run: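 Complex tumor spheroids combined malignant cells with endothelial cells and mesenchymal stem cells. DNA-damaging drugs and DNA repair inhibitors were tested alone and in combination, at half-log dilutions down from clinical Cmax (top 10 microM if Cmax unknown), 0.25% DMSO final.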

[1] = curve of first compound, second compound 30 pM
[2] = curve of first compound, second compound 94.9 pM
[3] = curve of first compound, second compound 0.0003 µM
[4] = curve of first compound, second compound 0.000949 µM
[5] = curve of first compound, second compound 0.003 µM
[6] = second compound 30 pM, first compound 0.0316 µM
[7] = second compound 30 pM, first compound 0.1 µM
[8] = second compound 30 pM, first compound 0.316 µM
[9] = second compound 30 pM, first compound 1 µM
[10] = second compound 30 pM, first compound 3.16 µM
[11] = second compound 30 pM, first compound 10 µM
[12] = second compound 94.9 pM, first compound 0.0316 µM
[13] = second compound 94.9 pM, first compound 0.1 µM
[14] = second compound 94.9 pM, first compound 0.316 µM
[15] = second compound 94.9 pM, first compound 1 µM
[16] = second compound 94.9 pM, first compound 3.16 µM
[17] = second compound 94.9 pM, first compound 10 µM
[18] = second compound 0.0003 µM, first compound 0.0316 µM
[19] = second compound 0.0003 µM, first compound 0.1 µM
[20] = second compound 0.0003 µM, first compound 0.316 µM
[21] = second compound 0.0003 µM, first compound 1 µM
[22] = second compound 0.0003 µM, first compound 3.16 µM
[23] = second compound 0.0003 µM, first compound 10 µM
[24] = second compound 0.000949 µM, first compound 0.0316 µM
[25] = second compound 0.000949 µM, first compound 0.1 µM
[26] = second compound 0.000949 µM, first compound 0.316 µM
[27] = second compound 0.000949 µM, first compound 1 µM
[28] = second compound 0.000949 µM, first compound 3.16 µM
[29] = second compound 0.000949 µM, first compound 10 µM
[30] = second compound 0.003 µM, first compound 0.0316 µM
[31] = second compound 0.003 µM, first compound 0.1 µM
[32] = second compound 0.003 µM, first compound 0.316 µM
[33] = second compound 0.003 µM, first compound 1 µM
[34] = second compound 0.003 µM, first compound 3.16 µM
[35] = second compound 0.003 µM, first compound 10 µM

Row | SMILES | IC50 [1] [nM] | IC50 [2] [nM] | IC50 [3] [nM] | IC50 [4] [nM] | IC50 [5] [nM] | viability, T/C [6] [%] | viability, T/C [7] [%] | viability, T/C [8] [%] | viability, T/C [9] [%] | viability, T/C [10] [%] | viability, T/C [11] [%] | viability, T/C [12] [%] | viability, T/C [13] [%] | viability, T/C [14] [%] | viability, T/C [15] [%] | viability, T/C [16] [%] | viability, T/C [17] [%] | viability, T/C [18] [%] | viability, T/C [19] [%] | viability, T/C [20] [%] | further results
1 | COc1ccc([C@@H](O)c2cc(-c3ncnc4cc(N5CCOCC5)ccc34)c(F)cc2Cl)nn1 + COc1cc2c(cc1O)CCNC21CSC2c3c(OC(C)=O)c(C)c4c(c3C(COC1=O)N1C(O)C3Cc5cc(C)c(OC)c(O)c5C(C21)N3C)OCO4 | 583 | < 31.6 | < 31.6 | < 31.6 | < 31.6 | 104 | 91.7 | 71.9 | 33 | 1.14 | 0.29 | 20.6 | 12.6 | 4.86 | 0.5 | 0.35 | 0.2 | 0.7 | 0.77 | 0.73 | viability, T/C [21]: 0.58%; viability, T/C [22]: 0.36%; viability, T/C [23]: 0.11%; viability, T/C [24]: 0.63%; viability, T/C [25]: 0.64%; viability, T/C [26]: 0.51%; viability, T/C [27]: 0.16%; viability, T/C [28]: 0.02%; viability, T/C [29]: 0.11%; viability, T/C [30]: 0.1%; viability, T/C [31]: 0.11%; viability, T/C [32]: 0.1%; viability, T/C [33]: 0.1%; viability, T/C [34]: 0.1%; viability, T/C [35]: 0.16%
2 | CC[C@@]1(O)C(=O)OCc2c1cc1n(c2=O)Cc2cc3c(CN(C)C)c(O)ccc3nc2-1 |  |  |  |  |  |  |  |  |  |  |  |  |  |  |  |  |  |  |  |  | viability, T/C (compound 0.00949 µM): 12.2% [middle of 10 runs]; viability, T/C (compound 0.03 µM): 1.13% [middle of 10 runs]; viability, T/C (compound 0.0949 µM): 1.05% [middle of 10 runs]; viability, T/C (compound 0.3 µM): 1.08% [middle of 10 runs]; IC50 (compound alone, run of 11/07/2019): 4.84 nM [middle of 4 runs]; IC50 (compound alone, run of 12/16/2019): 6.27 nM [middle of 5 runs]
3 | [2H]c1nc(C)nc([2H])c1-c1cc(NC[C@@H](C)c2cccc3c(C(=O)NC)ccnc23)ncn1 + COc1cc2c(cc1O)CCNC21CSC2c3c(OC(C)=O)c(C)c4c(c3C(COC1=O)N1C(O)C3Cc5cc(C)c(OC)c(O)c5C(C21)N3C)OCO4 | > 10000 | < 31.6 | < 31.6 | < 31.6 | < 31.6 | 103 | 104 | 100 | 99.6 | 102 | 78.2 | 16.1 | 15.9 | 19.4 | 17.4 | 7.6 | 3.55 | 0.71 | 0.97 | 0.84 | viability, T/C [21]: 0.85%; viability, T/C [22]: 0.8%; viability, T/C [23]: 1.01%; viability, T/C [24]: 0.83%; viability, T/C [25]: 0.71%; viability, T/C [26]: 0.61%; viability, T/C [27]: 0.65%; viability, T/C [28]: 0.74%; viability, T/C [29]: 0.72%; viability, T/C [30]: 0.21%; viability, T/C [31]: 0.21%; viability, T/C [32]: 0.19%; viability, T/C [33]: 0.19%; viability, T/C [34]: 0.19%; viability, T/C [35]: 0.23%
